Experimental findings from ChEMBL document CHEMBL1159147, “4-(2-PYRTOYL)-5-phenylthiazoles as novel non-bicyclic reversible inhibitors of the gastric H+/K+-atpase” (Bioorg Med Chem Lett, 1995) are described below.

In data set [1] the target is Potassium-transporting ATPase alpha chain 1 (Sus scrofa) (UniProt P19156). The experiment in a line: Ability to inhibit H+/K+ stimulated ATPase activity in lympholised gastric vesicles at 100 uM concentration. Type of data set: tissue-based. To be noted: Stomach.
For data set [2] the target is unchanged. The experiment in a line: Ability to inhibit H+/K+ stimulated ATPase activity in lympholised gastric vesicles at 30 uM concentration. Type of data set: tissue-based. To be noted: Stomach.
A further data set deals with Rattus norvegicus. Description: Compound was tested in vivo for its ability to inhibit pentagastrin-stimulated gastric acid secretion in the anesthetized lumen perfused rat at 10 umol/kg iv; insoluble. It is filed as functional, organism-based. Particulars: Stomach.
For data set [3], the system named is CCCc1nc(-c2cc(N)ccn2)c(-c2ccccc2C)s1. The experiment in a line: Km was determined.
Data set [4] shares this test system. Description: Vmax was determined.

Sequence of Potassium-transporting ATPase alpha chain 1 (Sus scrofa) (P19156 whole entry): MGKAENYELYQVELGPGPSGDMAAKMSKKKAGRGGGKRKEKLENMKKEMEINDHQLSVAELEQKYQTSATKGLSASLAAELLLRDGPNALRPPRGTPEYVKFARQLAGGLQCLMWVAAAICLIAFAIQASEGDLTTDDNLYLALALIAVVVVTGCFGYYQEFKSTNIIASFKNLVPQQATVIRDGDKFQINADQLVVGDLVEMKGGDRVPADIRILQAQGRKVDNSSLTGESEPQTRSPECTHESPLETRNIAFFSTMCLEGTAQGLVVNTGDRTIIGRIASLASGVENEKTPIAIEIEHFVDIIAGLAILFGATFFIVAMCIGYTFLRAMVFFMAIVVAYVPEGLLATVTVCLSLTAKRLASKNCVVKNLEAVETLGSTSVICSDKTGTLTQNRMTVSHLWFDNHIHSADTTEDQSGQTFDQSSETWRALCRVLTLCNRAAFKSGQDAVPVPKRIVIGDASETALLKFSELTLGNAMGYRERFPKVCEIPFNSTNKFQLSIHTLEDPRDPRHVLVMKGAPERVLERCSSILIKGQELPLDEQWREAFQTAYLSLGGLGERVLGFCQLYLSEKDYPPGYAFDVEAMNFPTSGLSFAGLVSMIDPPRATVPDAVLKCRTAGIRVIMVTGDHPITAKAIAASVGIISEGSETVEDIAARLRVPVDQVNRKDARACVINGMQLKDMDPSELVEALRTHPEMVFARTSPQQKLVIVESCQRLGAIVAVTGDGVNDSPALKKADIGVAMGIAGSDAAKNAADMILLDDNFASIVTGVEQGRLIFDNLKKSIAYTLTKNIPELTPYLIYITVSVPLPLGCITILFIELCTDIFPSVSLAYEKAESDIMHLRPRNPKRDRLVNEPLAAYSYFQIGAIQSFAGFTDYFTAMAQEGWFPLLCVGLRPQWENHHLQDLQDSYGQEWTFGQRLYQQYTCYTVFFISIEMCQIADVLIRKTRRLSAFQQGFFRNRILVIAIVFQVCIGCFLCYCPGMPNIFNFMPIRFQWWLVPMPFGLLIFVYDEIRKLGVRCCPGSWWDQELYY
Sequence of Potassium-transporting ATPase alpha chain 1 (Sus scrofa), P19156 (P19156 whole entry): as above

`Cc1nc(-c2ccccn2)c(-c2ccccc2C)s1`: the inhibition (as a rule, how much of the control response was suppressed) in data set [1] was 48%.
The molecule `CCCc1ncc(-c2ccccc2C)c(-c2ccccn2)n1` had an inhibition in data set [2] of 23%.
Turning to `Cc1ccccc1-c1nc(-c2ccccn2)c(-c2ccccc2C)s1`, the inhibition result with Rattus norvegicus is recorded as “Insoluble”.
The molecule `CCCc1nc(-c2ccccc2C)c(-c2ccccn2)[nH]1` returned an inhibition in data set [1] of 67%.
“Potassium-transporting ATPase alpha chain 1 (Sus scrofa), P19156”: the Km (as a rule, the concentration of substrate that gives half-maximal velocity) in data set [3] came out at 560 µM. Also, in data set [4], the Vmax was determined as 0.636 IU mg-1.
